Measurements from US20100105021A1, “STABILISATION OF BIOLOGICAL CELL MARKERS” (THE UNIVERSITY OF NOTTINGHAM, priority 2007, published 2010).

Legend:
[1] = tested on: platelet activation marker CD62P (P-selectin) on platelets; assay: Flow cytometric analysis of CD62P expression in diluted blood stimulated with a platelet stimulant and then fixed; assay type: cell-based, human; conditions: then fixed; for percentage of gated cells in P3 (% parent), CD62P: gate P3 set at 1% with IgG control, CD61-positive platelets; for median fluorescence of CD62P (P1 AND P2): whole population of CD61 positive cells, IgG control 2
Experimental: The inventors then set out to test the efficacy of the platelet stabilising composition by determining the expression levels of the platelet activation marker, CD62P (ie P-selectin), using flow cytometry.
Initially, an experiment was carried out in order to measure the level of expression of the platelet activation marker, CD62P, by flow cytometry in an IgG control sample. […] Platelets were gated in both P1 (top, centre in FIG. 1) and P2 (top, right in FIG. 1) in plots of a platelet identifier antibody, CD61-PerCP, against both side scatter (SSC) and forward scatter (FSC).
Approximately 3,000 CD61-positive platelet events were recorded. The CD61-positive cells were then drawn on a dot plot of CD62P against SSC (centre of FIG. 1). A frequency histogram of CD62P fluorescence against cell count was then used to quantify the percentage of cells from the parent population that were present in an interval gate P3 (bottom, left of FIG. 1). […] The gate was set at 1% using the appropriate IgG control sample and recorded in the statistics box (bottom right of FIG. 1). The median fluorescence of CD62P was also recorded for the whole population of CD61 positive cells (P1 AND P2).
Flow cytometric analysis was carried out to determine CD62P expression in an unstimulated sample of blood diluted with saline alone and then fixed.
Flow cytometric analysis was carried out to determine CD62P expression in a diluted sample of blood stimulated with adenosine diphosphate (ADP) and then fixed.
Flow cytometric analysis was carried out to determine CD62P expression in a diluted sample of blood stimulated with the thromboxane mimetic U46619 and then fixed.
Flow cytometric analysis was carried out to determine CD62P expression in a diluted sample of blood stimulated with thrombin receptor activating peptide (TRAP) and then fixed.

[2] = tested on: platelet activation marker CD62P; conditions: both groups where aspirin was added (healthy volunteers, patients on aspirin)
Experimental: Blood samples were obtained from (a) a group of healthy volunteers who were not being treated with aspirin, and (b) a group of patients who were on aspirin therapy. A CD62P stimulant combination of arachidonic acid and epinephrine, or arachidonic acid and epinephrine, in the presence of aspirin (as a control), were added to each blood sample for 4 minutes, followed by the stabilisation composition of the invention.

Compound	percentage of gated cells in P3 (% parent), CD62P [1]	median fluorescence of CD62P (P1 AND P2) [1]	inhibition of CD62P expression [2]
Nc1ncnc2c1ncn2[C@@H]1O[C@H](COP(=O)(O)OP(=O)(O)O)[C@@H](O)[C@H]1O [ADP, adenosine diphosphate]	70.8%	365	–
CCCCC[C@H](O)/C=C/[C@@H]1[C@@H](C/C=C\CCCC(=O)O)[C@H]2CO[C@@H]1C2 [U46619]	95.3%	1191	–
CC(=O)Oc1ccccc1C(=O)O [aspirin]	–	–	completely inhibited
thrombin receptor activating peptide [TRAP]	97.5%	1646	–
